According to paper PMC12249917, “Novel Au(I)- and Ag(I)-NHC Complexes with N-Boc-Protected Proline as Potential Candidates for Neurodegenerative Disorders” (International Journal of Molecular Sciences, 2025):
Read-outs that look alike come from different tables or passages of the source.

Key:
[1] = tested on: NO production in LPS-stimulated RAW 264.7 murine macrophages (iNOS); assay: Griess assay, NO production (iNOS) in LPS-stimulated RAW 264.7 macrophages; assay type: cell-based; details: for inhibition of NO production: 5 µM
Experimental: As a positive control, the nonsteroidal anti-inflammatory drug (NSAID) Indomethacin (Ind) was used.
Then, the cell culture medium was combined with an equal volume of Griess reagent at 40 mg/mL (ratio 1:1), and after a 30 min incubation with agitation, the optical density was measured at 540 nm. The levels of NO vs. LPS were calculated from the absorbance measurements using the following formula:(1) INO vs LPS (%)=ABSLPS−ABSSample/ABSLPS∗100 where ABSLPS represents the average absorbance of cells treated with LPS alone, and ABSsample represents the average absorbance of cells treated with both LPS and the tested complexes or Indomethacin.
NO production was induced by LPS (1 µg/mL). […] Salmon histograms: MTT assays performed in same experimental conditions in order to verify effect on RAW 264.7 cells’ viability of Indomethacin and tested complexes. Data were plotted as % of cell viability with respect to viability with LPS-only treatment (1 µg/mL).

hMAO-B = target: T1, hMAO-B (Homo sapiens, UniProt P27338); assay type: biochemical; details: for IC50: mean ± S.D., three experiments in triplicate
T1 sequence (P27338 1-520): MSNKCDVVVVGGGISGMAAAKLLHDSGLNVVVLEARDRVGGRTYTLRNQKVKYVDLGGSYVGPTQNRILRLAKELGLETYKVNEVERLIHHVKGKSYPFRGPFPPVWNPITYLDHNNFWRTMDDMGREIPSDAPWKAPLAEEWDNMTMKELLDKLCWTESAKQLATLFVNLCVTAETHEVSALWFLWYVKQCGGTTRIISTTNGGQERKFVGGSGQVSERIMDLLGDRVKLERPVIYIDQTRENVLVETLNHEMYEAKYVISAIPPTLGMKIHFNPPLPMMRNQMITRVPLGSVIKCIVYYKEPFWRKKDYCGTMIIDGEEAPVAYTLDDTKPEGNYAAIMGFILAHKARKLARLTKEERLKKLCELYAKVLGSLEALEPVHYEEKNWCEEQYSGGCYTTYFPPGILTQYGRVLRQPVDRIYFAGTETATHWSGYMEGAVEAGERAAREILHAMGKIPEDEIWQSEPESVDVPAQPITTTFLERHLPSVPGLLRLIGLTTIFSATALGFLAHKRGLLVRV
Experimental: (§1) Altered levels of MAO-A/B are associated with the degeneration of neurotransmitter biogenic amines such as serotonin, noradrenaline, and dopamine and are implicated in several diseases, such as depression, cancer, PD, and AD [27]. With this in mind, we explored the potential of these complexes in inhibiting human MAO (hMAO) isoforms.
(§2) The inhibitory activity of the gold and silver complexes against hMAO-A and hMAO-B was evaluated using a previously published protocol. […] Data analysis was performed using GraphPad PRISM 9 (GraphPad Software®, San Diego, CA, USA). IC50 values were determined from the dose–response curves and were presented as the mean ± SD of three independent experiments, each conducted in triplicate.

[2] = target: electric eel acetylcholinesterase (eeAChE) (Electrophorus electricus, UniProt O42275)
Experimental: (§3) The enzyme-inhibiting properties of the Au and Ag complexes against electric eel acetylcholinesterase (eeAChE) and equine butyrylcholinesterase (eqBChE) were assessed via a modified Ellman assay. […] A buffer-only control was included. The inhibition potency (IC50) was calculated from triplicate dose–response data, presented as the mean ± SD.

[3] = target: equine butyrylcholinesterase (eqBChE) (Equus caballus, UniProt P81908)
Experimental: as §3

RAW 264.7 cells = assay: MTT cell viability, RAW 264.7; assay type: cell-based, murine; details: RAW 264.7, MTT, 24 h
Experimental: 3-(4,5-dimethylthiazol-2-yl)-2,5-diphenyl-2H-tetrazolium bromide (MTT) was added to the cells in order to measure the cell viability at 24 h, as previously reported. IC50 values were determined from the dose–response curves for both NO inhibition (%) and the cell viability (%) using GraphPad Prism 9 software (GraphPad Software, La Jolla, CA, USA) and were presented as the mean ± SD of three independent experiments, each conducted in triplicate.
Figure 2 Brown histograms: Anti-inflammatory activity in terms of NO production inhibition (%), measured in vitro using RAW 264.7 murine macrophages. NO production was induced by LPS (1 µg/mL). Data were plotted as % NO inhibition with respect to inhibition with LPS-only treatment. Salmon histograms: MTT assays performed in same experimental conditions in order to verify effect on RAW 264.7 cells’ viability of Indomethacin and tested complexes. Data were plotted as % of cell viability with respect to viability with LPS-only treatment (1 µg/mL). Indomethacin (Ind) was used at concentration of 25 µM, while all other complexes were used at 5 µM, for 24 h. Bars ± SDs are shown (n = 3). ** p < 0.01 and **** p < 0.0001 for complex 3bP and Ind vs. LPS only; not significant (n.s.) where not indicated.

hMAO-A = target: T2, hMAO-A (Homo sapiens, UniProt P21397); assay: hMAO-A inhibitory activity; assay type: biochemical
T2 sequence (P21397 1-527): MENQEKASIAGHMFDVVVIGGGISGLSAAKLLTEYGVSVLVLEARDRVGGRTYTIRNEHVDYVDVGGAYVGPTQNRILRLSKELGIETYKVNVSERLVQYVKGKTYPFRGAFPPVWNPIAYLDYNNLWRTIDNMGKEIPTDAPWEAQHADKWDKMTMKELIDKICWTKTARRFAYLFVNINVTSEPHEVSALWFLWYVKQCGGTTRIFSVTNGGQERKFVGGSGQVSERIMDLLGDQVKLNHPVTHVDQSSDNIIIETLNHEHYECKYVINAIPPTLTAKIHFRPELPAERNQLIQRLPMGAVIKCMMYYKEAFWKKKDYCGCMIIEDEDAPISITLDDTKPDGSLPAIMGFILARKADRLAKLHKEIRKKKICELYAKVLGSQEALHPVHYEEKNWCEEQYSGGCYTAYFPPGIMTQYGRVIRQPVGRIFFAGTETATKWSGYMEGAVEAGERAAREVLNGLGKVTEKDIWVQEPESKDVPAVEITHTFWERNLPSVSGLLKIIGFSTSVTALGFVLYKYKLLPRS
Experimental: as §1, §2

[4] = tested on: intracellular ROS production in 3T3-L1 murine fibroblasts; assay: Intracellular ROS (H2DCF-DA) in menadione-treated 3T3-L1 fibroblasts; assay type: cell-based; details: menadione 25 µM, 15 min; for ROS production reduced to, compared to Men treatment alone: 24 h
Experimental: N-acetyl-cysteine (NAC), a powerful antioxidant, was used as a positive control.
The antioxidant capacity of the Au and Ag complexes was evaluated in 3T3-L1 murine fibroblasts by assessing the intracellular reactive oxygen species (ROS) levels using a DCFH2-DA assay, following a previously established method [36]. The cells were seeded in 96-well plates and incubated with the tested complexes at concentrations of between 0.1 and 20 µM for a 24 h period. […] N-acetylcysteine (NAC), a recognized antioxidant, served as a positive control at 20 mM. […] The % of ROS production inhibition (IROS) vs. that of the menadione-treated cells was calculated using the following formula:(2) IROS vs Men (%)=FMen−FSample/FMen∗100 where FMen represents the average fluorescence of the cells treated with menadione alone, and Fsample represents the average fluorescence of the cells treated with both menadione and the tested complexes or NAC.
Data were plotted as % ROS inhibition with respect to inhibition with Men-only treatment.

[5] = LPS 1 µg/mL, RAW 264.7, 24 h, read-out: IC50 (µM) NO Inhibition
[6] = read-out: IC50 (µM) eeAChE, mean ± S.D., three experiments in triplicate
[7] = read-out: IC50 (µM) eqBChE, mean ± S.D., three experiments in triplicate
[8] = mean ± S.D., three experiments in triplicate, read-out: IC50 (µM) hMAO-A
[9] = read-out: IC50 (μM), hBChE (Table S1), Table S1, experimentally derived IC50, column headed hBChE
[10] = Table S2, experimentally derived IC50, read-out: IC50 (μM), hMAOA (Table S2)
[11] = read-out: IC50 (μM), hAChE (Table S1), Table S1, experimentally derived IC50, column headed hAChE

Chain of equine butyrylcholinesterase (eqBChE) (P81908 whole entry): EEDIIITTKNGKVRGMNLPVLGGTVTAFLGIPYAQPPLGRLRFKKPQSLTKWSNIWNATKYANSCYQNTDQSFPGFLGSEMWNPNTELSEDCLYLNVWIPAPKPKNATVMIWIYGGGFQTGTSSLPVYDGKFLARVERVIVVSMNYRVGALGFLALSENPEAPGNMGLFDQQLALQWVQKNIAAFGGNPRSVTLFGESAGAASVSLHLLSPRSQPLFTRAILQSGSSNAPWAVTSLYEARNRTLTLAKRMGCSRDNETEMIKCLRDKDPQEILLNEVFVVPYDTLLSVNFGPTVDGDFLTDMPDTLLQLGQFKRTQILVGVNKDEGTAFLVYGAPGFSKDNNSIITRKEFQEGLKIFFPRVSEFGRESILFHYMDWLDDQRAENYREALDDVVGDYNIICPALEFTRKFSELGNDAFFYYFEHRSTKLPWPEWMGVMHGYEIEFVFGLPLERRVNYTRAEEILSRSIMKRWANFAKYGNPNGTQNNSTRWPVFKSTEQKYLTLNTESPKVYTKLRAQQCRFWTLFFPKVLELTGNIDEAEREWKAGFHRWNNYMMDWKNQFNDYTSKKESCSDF
Chain of electric eel acetylcholinesterase (eeAChE) (O42275 24-633): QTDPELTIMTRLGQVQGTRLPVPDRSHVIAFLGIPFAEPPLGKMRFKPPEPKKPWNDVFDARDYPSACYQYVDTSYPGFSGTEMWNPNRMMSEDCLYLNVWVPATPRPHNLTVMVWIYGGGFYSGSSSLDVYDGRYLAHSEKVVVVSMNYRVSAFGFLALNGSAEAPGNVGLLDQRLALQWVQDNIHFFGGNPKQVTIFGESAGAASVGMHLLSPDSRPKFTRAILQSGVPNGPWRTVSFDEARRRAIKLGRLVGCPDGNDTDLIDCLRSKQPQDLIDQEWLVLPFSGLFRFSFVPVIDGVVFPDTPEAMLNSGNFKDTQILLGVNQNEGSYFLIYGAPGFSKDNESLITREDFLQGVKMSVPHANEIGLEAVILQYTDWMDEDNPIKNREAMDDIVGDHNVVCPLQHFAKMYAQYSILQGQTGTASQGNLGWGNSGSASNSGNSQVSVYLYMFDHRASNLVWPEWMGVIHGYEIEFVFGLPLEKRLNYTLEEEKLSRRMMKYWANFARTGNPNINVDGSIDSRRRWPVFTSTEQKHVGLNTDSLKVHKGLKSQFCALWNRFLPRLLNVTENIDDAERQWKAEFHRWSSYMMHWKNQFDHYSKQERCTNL

Structure (SMILES)	IC50 [1, 5] [µM]	IC50 (hMAO-B) [µM]	IC50 [2, 6] [µM]	IC50 [3, 7] [µM]	IC50 (RAW 264.7 cells) [µM]	IC50 (hMAO-A; [8]) [µM]	SI, hMAO-B selectivity index = IC50(hMAO-A)/IC50(hMAO-B) (hMAO-B)	SI, eqBChE selectivity index = IC50(eeAChE)/IC50(eqBChE) [3]	IC50 [3, 9] [µM]	IC50 (hMAO-A; [10]) [µM]	IC50 [2, 11] [µM]	inhibition of NO production ([1]; 24 h, vs LPS-only treatment)	IC50 ([1]; Table S3, experimentally derived IC50, read-out: IC50 (μM), iNOS (Table S3)) [µM]	ROS production reduced to, compared to Men treatment alone ([4]; 1 µM)	ROS production reduced to, compared to Men treatment alone ([4]; 10 µM)	inhibition at 25 µM ([1]; Mus musculus, RAW264.7, 25 µM, 24 h, vs LPS-only treatment) [%]	IC50 ([1]; Mus musculus, RAW264.7, LPS 1 µg/mL, RAW 264.7, 24 h, read-out: IC50 (µM) NO Inhibition) [µM]	IC50 (RAW 264.7 cells; Mus musculus, RAW264.7) [µM]	ROS formation reduced to [4]
C[n+]1ccn(CC(O)c2ccccc2)[c]1[Ag-][O]C(=O)[C@@H]1CCCN1C(=O)OC(C)(C)C (some centres unmarked) [1aP]	> 50	> 25	> 25	> 25	> 50	> 25													
C[n+]1ccn(CC(O)c2ccccc2)[c]1[Au-][O]C(=O)[C@@H]1CCCN1C(=O)OC(C)(C)C (some centres unmarked) [1bP]	> 50	3.78 ± 0.16	18.4 ± 1.43	6.19 ± 0.91	> 50	1.32 ± 0.02	0.35	2.97											
C[n+]1c(Cl)c(Cl)n(CC(O)c2ccccc2)[c]1[Ag-][O]C(=O)[C@@H]1CCCN1C(=O)OC(C)(C)C (some centres unmarked) [2aP]	> 50	9.82 ± 0.84	> 25	18.2 ± 2.4	> 50	15 ± 1.02	1.53	>1.37	18.2 ± 0.02	15 ± 0.9									
C[n+]1c(Cl)c(Cl)n(CC(O)c2ccccc2)[c]1[Au-][O]C(=O)[C@@H]1CCCN1C(=O)OC(C)(C)C (some centres unmarked) [2bP]	32.3 ± 1.82	1.94 ± 0.09	4.68 ± 0.47	3.14 ± 0.33	> 50	0.72 ± 0.02	0.37	1.49	3.1 ± 0.02		4.7 ± 0.02								
C[n+]1c(-c2ccccc2)c(-c2ccccc2)n(CC(O)c2ccccc2)[c]1[Ag-][O]C(=O)[C@@H]1CCCN1C(=O)OC(C)(C)C (some centres unmarked) [3aP]	30.9 ± 1.74	> 25	> 25	17.4 ± 0.98	> 50	25 ± 2.95		>1.44				approximately 8%							
C[n+]1c(-c2ccccc2)c(-c2ccccc2)n(CC(O)c2ccccc2)[c]1[Au-][O]C(=O)[C@@H]1CCCN1C(=O)OC(C)(C)C (some centres unmarked) [3bP]	4.88 ± 0.58	4.75 ± 0.75	5.89 ± 0.56	> 25	20.3 ± 1.26	1.84 ± 0.18	0.39					about 52%	4.9 ± 0.5	approximately 70%					
C[n+]1[c]([Ag-][O]C(=O)[C@@H]2CCCN2C(=O)OC(C)(C)C)n(CC(O)c2ccccc2)c2ccccc21 (some centres unmarked) [4aP]	> 50	10.4 ± 1.95	14 ± 0.72	5.19 ± 0.95	> 50	3.32 ± 0.15	0.32	2.68	5.2 ± 0.05	3.3 ± 0.01	13.9 ± 0.01								
C[n+]1[c]([Au-][O]C(=O)[C@@H]2CCCN2C(=O)OC(C)(C)C)n(CC(O)c2ccccc2)c2ccccc21 (some centres unmarked) [4bP]	13.1 ± 0.92	2.1 ± 0.2	3.72 ± 0.44	0.45 ± 0.06	12.1 ± 1.03	0.0713	0.03	8.27			3.7 ± 0.02				approximately 60%				
COc1ccc2c(c1)c(CC(=O)O)c(C)n2C(=O)c1ccc(Cl)cc1 [Indomethacin, reference compound]																~20	> 50	> 50	
CC(=O)N[C@@H](CS)C(=O)O [NAC, N-acetyl-cysteine, reference compound]																			approximately 70%
